Experimental data as given in the NIST ThermoML archive (doi:10.1016/j.jct.2018.10.015).
± gives the expanded uncertainty stated by the source.

Key:
[1] = xn = mol fraction of the nth substance listed; conditions: 101.3 kPa, Liquid, x2 = 0; for viscosity: Concentric cylinders viscometry; for mass density: Vibrating tube method
[2] = 101.3 kPa, Liquid; for viscosity: Concentric cylinders viscometry; for mass density: Vibrating tube method

| Compound | viscosity ([1]; 293.15 K) [mPa·s] | mass density ([1]; 293.15 K) [kg/m3] | viscosity ([1]; 298.15 K) [mPa·s] | mass density ([1]; 298.15 K) [kg/m3] | viscosity ([1]; 303.15 K) [mPa·s] | mass density ([1]; 303.15 K) [kg/m3] | viscosity ([1]; 308.15 K) [mPa·s] | mass density ([1]; 308.15 K) [kg/m3] | viscosity ([1]; 313.15 K) [mPa·s] | mass density ([1]; 313.15 K) [kg/m3] | viscosity ([1]; 318.15 K) [mPa·s] | mass density ([1]; 318.15 K) [kg/m3] | viscosity ([1]; 323.15 K) [mPa·s] | mass density ([1]; 323.15 K) [kg/m3] | viscosity ([1]; 328.15 K) [mPa·s] | mass density ([1]; 328.15 K) [kg/m3] | viscosity ([2]; 293.15 K) [mPa·s] | mass density ([2]; 293.15 K) [kg/m3] | viscosity ([2]; 298.15 K) [mPa·s] | mass density ([2]; 298.15 K) [kg/m3] | further results |
| --- | --- | --- | --- | --- | --- | --- | --- | --- | --- | --- | --- | --- | --- | --- | --- | --- | --- | --- | --- | --- | --- |
| COC(=O)OC [dimethyl carbonate] + CCn1cc[n+](C)c1C.O=S(=O)([N-]S(=O)(=O)C(F)(F)F)C(F)(F)F | 0.629 ± 0.009 | 1069.7 ± 2.4 | 0.59 ± 0.008 | 1063.1 ± 2.4 | 0.555 ± 0.008 | 1056.4 ± 2.4 | 0.525 ± 0.008 | 1049.7 ± 2.4 | 0.495 ± 0.007 | 1043.1 ± 2.4 | 0.475 ± 0.007 | 1036.4 ± 2.4 | 0.446 ± 0.007 | 1029.6 ± 2.4 | 0.425 ± 0.007 | 1022.8 ± 2.4 |  |  |  |  |  |
| CCn1cc[n+](C)c1C.O=S(=O)([N-]S(=O)(=O)C(F)(F)F)C(F)(F)F |  |  |  |  |  |  |  |  |  |  |  |  |  |  |  |  | 89.88 ± 1.3 | 1495.8 ± 2.5 | 71.34 ± 0.92 | 1491 ± 2.5 | viscosity ([2]; 303.15 K): 57.64 ± 0.7 mPa·s; mass density ([2]; 303.15 K): 1486.3 ± 2.5 kg/m3; viscosity ([2]; 308.15 K): 47.26 ± 0.58 mPa·s; mass density ([2]; 308.15 K): 1481.5 ± 2.5 kg/m3; viscosity ([2]; 313.15 K): 39.24 ± 0.48 mPa·s; mass density ([2]; 313.15 K): 1476.7 ± 2.5 kg/m3; viscosity ([2]; 318.15 K): 33 ± 0.4 mPa·s; mass density ([2]; 318.15 K): 1472 ± 2.5 kg/m3; viscosity ([2]; 323.15 K): 28.05 ± 0.34 mPa·s; mass density ([2]; 323.15 K): 1467.2 ± 2.5 kg/m3; viscosity ([2]; 328.15 K): 24.16 ± 0.29 mPa·s; mass density ([2]; 328.15 K): 1462.4 ± 2.5 kg/m3 |
| CCOC(=O)OCC [diethyl carbonate] |  |  |  |  |  |  |  |  |  |  |  |  |  |  |  |  | 0.805 ± 0.011 | 974.9 ± 2.4 | 0.751 ± 0.01 | 969.3 ± 2.4 | viscosity ([2]; 303.15 K): 0.702 ± 0.01 mPa·s; mass density ([2]; 303.15 K): 963.7 ± 2.4 kg/m3; viscosity ([2]; 308.15 K): 0.659 ± 0.009 mPa·s; mass density ([2]; 308.15 K): 958 ± 2.4 kg/m3; viscosity ([2]; 313.15 K): 0.62 ± 0.009 mPa·s; mass density ([2]; 313.15 K): 952.4 ± 2.4 kg/m3; viscosity ([2]; 318.15 K): 0.584 ± 0.008 mPa·s; mass density ([2]; 318.15 K): 946.7 ± 2.4 kg/m3; viscosity ([2]; 323.15 K): 0.552 ± 0.008 mPa·s; mass density ([2]; 323.15 K): 940.9 ± 2.4 kg/m3; viscosity ([2]; 328.15 K): 0.523 ± 0.008 mPa·s; mass density ([2]; 328.15 K): 935.2 ± 2.4 kg/m3 |
| CCOC(=O)OCC [diethyl carbonate] + CCn1cc[n+](C)c1C.O=S(=O)([N-]S(=O)(=O)C(F)(F)F)C(F)(F)F | 0.805 ± 0.011 | 974.9 ± 2.4 | 0.751 ± 0.01 | 969.3 ± 2.4 | 0.702 ± 0.01 | 963.7 ± 2.4 | 0.659 ± 0.009 | 958 ± 2.4 | 0.62 ± 0.009 | 952.4 ± 2.4 | 0.584 ± 0.008 | 946.7 ± 2.4 | 0.552 ± 0.008 | 940.9 ± 2.4 | 0.523 ± 0.008 | 935.2 ± 2.4 |  |  |  |  |  |
| CCOC(=O)OCC [diethyl carbonate] + CCCCn1cc[n+](C)c1C.O=S(=O)([N-]S(=O)(=O)C(F)(F)F)C(F)(F)F | 0.805 ± 0.011 | 974.9 ± 2.4 | 0.751 ± 0.01 | 969.3 ± 2.4 | 0.702 ± 0.01 | 963.7 ± 2.4 | 0.659 ± 0.009 | 958 ± 2.4 | 0.62 ± 0.009 | 952.4 ± 2.4 | 0.584 ± 0.008 | 946.7 ± 2.4 | 0.552 ± 0.008 | 940.9 ± 2.4 | 0.523 ± 0.008 | 935.2 ± 2.4 |  |  |  |  |  |
| COC(=O)OC [dimethyl carbonate] + CCCCn1cc[n+](C)c1C.O=S(=O)([N-]S(=O)(=O)C(F)(F)F)C(F)(F)F | 0.629 ± 0.009 | 1069.7 ± 2.4 | 0.59 ± 0.008 | 1063.1 ± 2.4 | 0.555 ± 0.008 | 1056.4 ± 2.4 | 0.525 ± 0.008 | 1049.7 ± 2.4 | 0.495 ± 0.007 | 1043.1 ± 2.4 | 0.475 ± 0.007 | 1036.4 ± 2.4 | 0.446 ± 0.007 | 1029.6 ± 2.4 | 0.425 ± 0.007 | 1022.8 ± 2.4 |  |  |  |  |  |
| CCCCn1cc[n+](C)c1C.O=S(=O)([N-]S(=O)(=O)C(F)(F)F)C(F)(F)F |  |  |  |  |  |  |  |  |  |  |  |  |  |  |  |  | 133.6 ± 2.3 | 1423.1 ± 2.5 | 101.82 ± 1.6 | 1418.5 ± 2.5 | viscosity ([2]; 303.15 K): 79.23 ± 1.1 mPa·s; mass density ([2]; 303.15 K): 1413.9 ± 2.5 kg/m3; viscosity ([2]; 308.15 K): 62.74 ± 0.78 mPa·s; mass density ([2]; 308.15 K): 1409.3 ± 2.5 kg/m3; viscosity ([2]; 313.15 K): 50.56 ± 0.6 mPa·s; mass density ([2]; 313.15 K): 1404.8 ± 2.5 kg/m3; viscosity ([2]; 318.15 K): 41.38 ± 0.5 mPa·s; mass density ([2]; 318.15 K): 1400.2 ± 2.5 kg/m3; viscosity ([2]; 323.15 K): 34.32 ± 0.42 mPa·s; mass density ([2]; 323.15 K): 1395.6 ± 2.5 kg/m3; viscosity ([2]; 328.15 K): 28.91 ± 0.35 mPa·s; mass density ([2]; 328.15 K): 1391 ± 2.5 kg/m3 |
| COC(=O)OC [dimethyl carbonate] |  |  |  |  |  |  |  |  |  |  |  |  |  |  |  |  | 0.629 ± 0.009 | 1069.7 ± 2.4 | 0.59 ± 0.008 | 1063.1 ± 2.4 | viscosity ([2]; 303.15 K): 0.555 ± 0.008 mPa·s; mass density ([2]; 303.15 K): 1056.4 ± 2.4 kg/m3; viscosity ([2]; 308.15 K): 0.525 ± 0.008 mPa·s; mass density ([2]; 308.15 K): 1049.7 ± 2.4 kg/m3; viscosity ([2]; 313.15 K): 0.495 ± 0.007 mPa·s; mass density ([2]; 313.15 K): 1043.1 ± 2.4 kg/m3; viscosity ([2]; 318.15 K): 0.475 ± 0.007 mPa·s; mass density ([2]; 318.15 K): 1036.4 ± 2.4 kg/m3; viscosity ([2]; 323.15 K): 0.446 ± 0.007 mPa·s; mass density ([2]; 323.15 K): 1029.6 ± 2.4 kg/m3; viscosity ([2]; 328.15 K): 0.425 ± 0.007 mPa·s; mass density ([2]; 328.15 K): 1022.8 ± 2.4 kg/m3 |
